Experimental data: patent US4829076A, “Novel dihydropyridines having calcium antagonistic and antihypertensive activity” (Alkaloida Vegyeszeti Gyar, priority 1986, dated 1989)
Where two headings read alike, the source gives them in different places.

What was measured:
[1] = system: anesthetized, normotensive cats; assay: Hypotensive effect in anesthetized, normotensive cats; type: in vivo, cat; conditions: 1 mg/kg id.
Protocol: A tube was inserted in the trachea of cats anesthetized with ip.35 mg/kg of pentobarbital sodium to ensure spontaneous respiration. The femoral artery and vein were both cannulated unilaterally. The vegetative test compounds (adrenaline, isoproterenol) were administered through the venous cannule. The mean arterial blood pressure was measured by joining the arterial cannule to a Statham P23Db pressure transducer and electromanometer. The heart rate was determined by a cardiotachometer triggered by arterial pulse-wave.
Various doses of the test compounds were administered through a cannule inserted into the duodenum.

[2] = system: spontaneously hypertensive conscious rats; assay: Antihypertensive effect in spontaneously hypertensive conscious rats ("SH" rats); type: in vivo, rat (Wistar-Okamoto); conditions: 10 mg/kg p.o.; for change in vivo at 10 mg/kg: Rattus norvegicus, po
Protocol: The blood pressure of rats was measured before treatment and hourly after drug administration till the 24th posttreatment hour. The test compounds were administered orally, by gavage.

[3] = 2 h, read-out: Systolic blood pressure reduction in %, 2 h
[4] = 5 h, read-out: Systolic blood pressure reduction in %, 5 h
[5] = 24 h, read-out: Systolic blood pressure reduction in %, 24 h

SMILES: COC(=O)C1=C(C)NC(C)=C(C(=O)OC)C1c1ccccc1NC(=O)c1ccc(Cl)cc1 [Example 6]
- Mean arterial pressure, 5 min [1]: 115 Hgmm
- Mean arterial pressure, 15 min [1]: 85 Hgmm
- Mean arterial pressure, 30 min [1]: 65 Hgmm
- Mean arterial pressure, 60 min [1]: 70 Hgmm
- Mean arterial pressure, 120 min [1]: 75 Hgmm

SMILES: COC(=O)C1=C(C)NC(C)=C(C(=O)OC)C1c1ccccc1NC(=O)c1ccc(OC)cc1 [Example 14]
- Mean arterial pressure, 5 min [1]: 150 Hgmm
- Mean arterial pressure, 15 min [1]: 75 Hgmm
- Mean arterial pressure, 30 min [1]: 85 Hgmm
- Mean arterial pressure, 60 min [1]: 95 Hgmm
- Mean arterial pressure, 120 min [1]: 110 Hgmm
- Systolic blood pressure, 2 h ([2]; 2 h): 165 Hgmm
- Systolic blood pressure, 5 h ([2]; 5 h): 164.5 Hgmm
- Systolic blood pressure, 24 h ([2]; 24 h): 206.8 Hgmm
- change in vivo at 10 mg/kg [2, 3]: -17%
- change in vivo at 10 mg/kg [2, 4]: -17%
- change in vivo at 10 mg/kg [2, 5]: 4%

SMILES: CCCCCCCC(=O)Nc1ccccc1C1C(C(=O)OC)=C(C)NC(C)=C1C(=O)OC [Example 18]
- Mean arterial pressure, 5 min [1]: 75 Hgmm
- Mean arterial pressure, 30 min [1]: 100 Hgmm
- Mean arterial pressure, 60 min [1]: 100 Hgmm
- Systolic blood pressure, 2 h ([2]; 2 h): 179.2 Hgmm
- Systolic blood pressure, 5 h ([2]; 5 h): 178 Hgmm
- Systolic blood pressure, 24 h ([2]; 24 h): 192.6 Hgmm
- change in vivo at 10 mg/kg [2, 3]: -11%
- change in vivo at 10 mg/kg [2, 4]: -11%
- change in vivo at 10 mg/kg [2, 5]: -4%

SMILES: COC(=O)C1=C(C)NC(C)=C(C(=O)OC)C1c1ccccc1NC(=O)c1cccc(C)c1 [Example 20]
- Mean arterial pressure, 5 min [1]: 140 Hgmm
- Mean arterial pressure, 30 min [1]: 105 Hgmm
- Mean arterial pressure, 60 min [1]: 105 Hgmm
- Mean arterial pressure, 120 min [1]: 120 Hgmm

SMILES: COC(=O)C1=C(C)NC(C)=C(C(=O)OC)C1c1ccccc1NC(=O)c1ccccc1C [Example 21]
- Mean arterial pressure, 5 min [1]: 90 Hgmm
- Mean arterial pressure, 15 min [1]: 95 Hgmm
- Mean arterial pressure, 30 min [1]: 100 Hgmm
- Mean arterial pressure, 60 min [1]: 110 Hgmm
- Mean arterial pressure, 120 min [1]: 110 Hgmm
- Systolic blood pressure, 2 h ([2]; 2 h): 175.2 Hgmm
- Systolic blood pressure, 5 h ([2]; 5 h): 167.8 Hgmm
- Systolic blood pressure, 24 h ([2]; 24 h): 201.4 Hgmm
- change in vivo at 10 mg/kg [2, 3]: -10%
- change in vivo at 10 mg/kg [2, 4]: -14%
- change in vivo at 10 mg/kg [2, 5]: 4%

SMILES: COCCOC(=O)C1=C(C)NC(C)=C(C(=O)OC)C1c1ccccc1NC(=O)C(F)(F)F (stereo not drawn) [Example 36, 2,6-Dimethyl-3-methoxycarbonyl-5-(2-methoxyethoxycarbonyl)-4-(2-trifluoroacetamidophenyl)-1,4-dihydropyridine]
- Systolic blood pressure, 2 h ([2]; 2 h): 172.8 Hgmm
- Systolic blood pressure, 5 h ([2]; 5 h): 172.4 Hgmm
- Systolic blood pressure, 24 h ([2]; 24 h): 222.0 Hgmm
- change in vivo at 10 mg/kg [2, 3]: -19%
- change in vivo at 10 mg/kg [2, 4]: -19%
- change in vivo at 10 mg/kg [2, 5]: 4%

SMILES: COC(=O)C1=C(C)NC(C)=C(C(=O)OC(C)C)C1c1ccccc1NC(=O)C(F)(F)F (stereo not drawn) [Example 37, 2,6-Dimethyl-3-isopropoxycarbonyl-5-methoxycarbonyl-4-(2-trifluoroacetamidophenyl)-1,4-dihydrophyridine]
- Mean arterial pressure, 5 min [1]: 150 Hgmm
- Mean arterial pressure, 15 min [1]: 100 Hgmm
- Mean arterial pressure, 30 min [1]: 100 Hgmm
- Mean arterial pressure, 60 min [1]: 100 Hgmm
- Mean arterial pressure, 120 min [1]: 135 Hgmm

SMILES: COC(=O)C1=C(C)NC(C)=C(C(=O)OC)C1c1ccccc1NS(C)(=O)=O [Example 41, 2,6-Dimethyl-4-n2-methanesulfonylamidophenyl)-3,5-bis(methoxycarbonyle-1,4-dihydropyridine]
- Mean arterial pressure, 5 min [1]: 90 Hgmm
- Mean arterial pressure, 15 min [1]: 80 Hgmm
- Mean arterial pressure, 30 min [1]: 85 Hgmm
